The results in this text go back to patent publication US20250027041A1, “COMPOSITION FOR INDUCING TRANSDIFFERENTIATION AND STEM CELLS TREATED THEREWITH” (YJ CERAPEUTICS INC., priority 2021, published 2025).

Assay [1] deals with T1, CtBP1 (Homo sapiens, UniProt Q13363). Kind of assay: Immunoprecipitation, CtBP1 oligomerization in UCB-MSCs. The format is cell-based. Also noted: expressed in transfected cells; host or cells: human UCB-MSC. Particulars: MTOB 300 μM. On the procedure:
To determine the effect of YJ102 on the regulation of oligomerization of C-terminal Binding Proteins (CtBPs) in human UCB-MSCs, immunoprecipitation analysis was performed. Specifically, UCB-MSCs were dispensed at 4×10^5 cells/ml in a 60 mm culture dish, and the next day, FLAG-CtBP1, HA-CtBP1, FLAG-CtBP2, and HA-CtBP1 were transfected into cells using 4 μl jetPRIME. Thereafter, the cells were treated with YJ102 (stock 30 mM in DMSO) and MTOB (stock 300 mM in DMSO) at 20 μM and 300 μM, respectively (Table 1). After 48 hours of transfection, proteins were extracted in the same manner as in Example 1-1. Protein G agarose slurry was washed with PBS and blocked with 1 ml of 1% BSA, washed with PBS, and added with 1 μg of anti-HA antibody diluted with 1.5 ml of PBS and incubated at 4° C. for 2 hours. Thereafter, the cells were centrifuged at 3,000×g for 2 minutes to remove the supernatant, washed with an IP150 buffer two times, added with 1 μg of the protein extracted above, and incubated at 4° C. overnight. After incubation, the cells were centrifuged at 3,000×g for 2 minutes to remove the supernatant, washed with PBS three times, added with 50 μl of 1 mg/ml HA peptide diluted with PBS, and incubated at room temperature for 10 minutes. […]

The subject of another assay is human UCB-MSCs. Briefly: Tuj1 immunochemical assay with CtBP inhibitors. The format is cell-based. On the procedure: To determine CtBP1-mediated ciNSC5 differentiation by YJ102 in human UCB-MSCs, a CTBP1 mechanism by treatment with NSC95397 or 4-methylthio-2-oxobutanoate (MTOB) was analyzed by immunochemical assay. Specifically, UCB-MSCs were dispensed at 2.1×10^4 cells/well in a 12-well plate containing an 18 mm cover glass (circular) (a DMSO control group was dispensed at 3.5×10^3 cells/well). […] The culture medium was removed, washed with PBS, and fixed with 4% paraformaldehyde at room temperature for 10 minutes. After washed three times with PBS, the cells were permeabilized with PBS-T containing 0.5% Triton X-100 for 10 minutes, washed with PBS-T three times for 10 minutes each, and then blocked with a blocking solution (PBS-T containing 5% BSA and 5% goat serum) for 1 hour. Thereafter, the cells were treated with anti-Tuj1 antibody (Cat. 801201, BioLegend) diluted 1/5000 in a blocking solution and incubated at 4° C. overnight. The next day, the cells were washed 10 times for 10 minutes each with PBS-T, and then treated with anti-mouse IgG-cy3 (Cat. 111-165-003, Jackson ImmunoResearch) diluted 1/2000 in a blocking solution, and incubated for 1 hour in dark conditions. Next, the cells were washed 10 times for 10 minutes each with PBS-T, mounted with a mounting solution containing DAPI, and then observed with a confocal microscope.

For assay [2], the system named is UCB-MSCs. Briefly: CellTiter-Glo proliferation assay. The format is cell-based, human. Particulars: 10, 20, or 40 μM; 3 or 5 days. The procedure:
Thereafter, 100 μl of a CellTiter-Glo reagent prepared by mixing a CellTiter-Glo Buffer with a CellTiter-Glo substrate was added to each well of a 96-well plate, covered with a plate cover, and incubated at room temperature for 30 minutes.
In general terms: In ATP-based viability assays light output follows the ATP content of the culture.

In assay [3] the test system is UCB-MSCs. Briefly: Tuj1 immunochemical assay, direct conversion of UCB-MSCs into ciNSC5. The format is cell-based, human. Particulars: 30 μM, 5 days; for expression of Tuj1: UCB-MSC. The procedure:
Immunochemical assay was performed to confirm whether UCB-MSCs were transdifferentiated into ciNSC5, Tuj1-positive neural progenitor cells, by the compounds of the present invention, YJ101, YJ102, and YJ103. Specifically, UCB-MSCs were dispensed at 2.1×10^4 cells/well in a 12-well plate containing an 18 mm cover glass (a DMSO control group was dispensed at 3.5×10^3 cells/well). […] The culture medium was removed, washed with PBS, and then fixed with 4% paraformaldehyde at room temperature for 10 minutes. After washed three times with PBS, the cells were permeabilized with PBS-T containing 0.5% Triton X-100 for 10 minutes, washed with PBS-T three times for 10 minutes each, and then blocked with a blocking solution (PBS-T containing 5% BSA and 5% goat serum) for 1 hour. Thereafter, the cells were treated with anti-Tuj1 antibody (Cat. 801201, BioLegend) diluted 1/5000 in a blocking solution and incubated at 4° C. overnight. The next day, the cells were washed 10 times for 10 minutes each with PBS-T, and then treated with anti-mouse IgG-FITC diluted 1/500 in a blocking solution, and incubated for 1 hour in dark conditions. Next, the cells were washed 10 times for 10 minutes each with PBS-T, mounted with a mounting solution containing DAPI, and then observed with a confocal microscope.

Assay [4] addresses T1, CtBP1. Briefly: DARTS assay, CtBP1. It is filed as binding. Set-up: expressed in transfected cells; host or cells: human UCB-MSC (Kang Stem Cell), lysate. Particulars: for overexpressed CtBP1 (flag-CtBP1) protection from degradation by pronase (DARTS): FLAG-CtBP1 transfected UCB-MSC lysate, YJ101 (20 or M), YJ102 (20 or 30 μM), YJ103 (20 or 40 μM); for binding to CtBP1: human UCB-MSC. On the procedure:
To identify proteins binding to compounds of the present invention, YJ101 (Chemical Formula 1), YJ102 (Chemical Formula 2), and YJ103 (Chemical Formula 3), in human umbilical cord blood-derived mesenchymal stem cells (UCB-MSCs), DART assay was performed. Specifically, UCB-MSCs (Kang Stem Cell, Passage #6) were dispensed into a 100 mm culture dish and incubated in a KSB-3 medium (Cat. K3901, Kang Stem Cell) containing 10% FBS (Cat. 16000044), and then collected and washed with PBS. Thereafter, the cells were added with an IP50 lysis buffer [50 mM Tris-HCl (pH 7.4), 150 mM NaCl, 2 mM MgCl2, and 0.1% NP40], sonicated, and centrifuged at 13,000×g for 10 minutes at 4° C. to obtain the supernatant. The supernatant was added with 1/10 volume of 10×TNC buffer [500 mM Tris-HCl (pH 8.0), 500 mM NaCl, and 100 mM CaCl2)], and protein concentration was measured using a Bradford method. Thereafter, 9 μl of a cell lysate and 1 μl of YJ101 (20 or M), YJ102 (20 or 30 μM), or YJ103 (20 or 40 μM) were mixed in a microcentrifuge tube and incubated at room temperature for 1 hour. A control group was treated with 1 μl of DMSO. After incubation, 1 μl (1 mg/ml) of Pronase (Cat. 10 165 921 001, Roche) diluted to 1 mg/ml using a 1×TNC buffer was added to the microcentrifuge tube and incubated at 37° C. for 15 minutes. After incubation, ⅕ volume of a 5×SDS-PAGE loading buffer was added, heated at 100° C. for 5 minutes, and then SDS-PAGE and Coomassie blue staining were performed. In addition, UCB-MSCs were dispensed at 4×10^5 cells/ml in a 60 mm culture dish, and after 24 hours, 4 μg of FLAG-CtBP1 or FLAG-CtBP2 DNA was transfected using 4 μl of jetPRIME. After 48 hours, the cells were collected, and proteins were extracted and quantified using the same method as above. DARTS assay was performed with the cell lysate of CtBP1 and Y102 labeled with FLAG, and Western blot assay was performed with a flag antibody (Cat. F3165, Sigma).

Another assay relates to AD-MSC. Kind of assay: Tuj1 immunochemical assay, AD-MSC. The format is cell-based, human. Particulars: 10, 20 or 30 μM, 5 days. The procedure:
(§1) To determine whether transdifferentiation into ciNSC5, neural progenitor cells, occurred similarly even in MSCs of different origins when human UCB-MSCs were treated with YJ101, YJ102, or YJ103 for 5 days, the expression of neuronal markers in differentiated ciNSC5 was confirmed by immunochemical assay using MSCs from human adipose-derived mesenchymal stem cells (AD-MSCs), human bone marrow-derived mesenchymal stem cells ([…]) and human umbilical cord blood-derived mesenchymal stem cells (UCB-MSCs; Promo Cells). Specifically, AD-MSC (StemPro™ Human Adipose-Derived Stem Cell, Gibco, Passage #6) was incubated in a MesenPRO RS™ medium, BM-MSC (ATCC, Passage #6) was incubated in a Mesenchymal Stem Cell Basal Medium for Adipose, Umbilical and Bone Marrow-derived MSC (Cat. PCS-500-030, ATCC) medium, and UCB-MSC (Promo Cell, Passage #6) was incubated in a CellCor™ CD MSC (Cat. YSP001, Xell Therapeutics) medium, and then dispensed at 2.1×10^4 cells/well in a 12-well plate with an 18 mm cover glass (circular) (DMSO control group was dispensed at 3.5×10^3 cells/well). […] The culture medium was removed, washed with PBS, and then fixed with 4% paraformaldehyde at room temperature for 10 minutes. After washed three times with PBS, the cells were permeabilized with PBS-T containing 0.5% Triton X-100 for 10 minutes, washed with PBS-T three times for 10 minutes each, and then blocked with a blocking solution (PBS-T containing 5% BSA and 5% goat serum) for 1 hour. Thereafter, the cells were treated with anti-Tuj1 antibody (Cat. 801201, BioLegend) diluted 1/5000 in a blocking solution and incubated at 4° C. overnight. The next day, the cells were washed 10 times for 10 minutes each with PBS-T, and then treated with anti-mouse IgG-cy3 diluted 1/2000 in a blocking solution, and incubated for 1 hour in dark conditions. Next, the cells were washed 10 times for 10 minutes each with PBS-T, mounted with a mounting solution containing DAPI, and then observed with a confocal microscope.

For another assay, the system named is BM-MSC. Briefly: Tuj1 immunochemical assay, BM-MSC. The format is cell-based, human. Particulars: 10, 20 or 30 μM, 5 days. The procedure:
as §1

The next assay deals with UCB-MSC (Promo Cell). Kind of assay: Tuj1 immunochemical assay, UCB-MSC (Promo Cell). The format is cell-based, human. Particulars: 10, 20 or 30 μM, 5 days. The procedure: as §1

Take `CSCCC(=O)C(=O)O` [MTOB, 4-methylthio-2-oxobutanoate, reference compound]: the “YJ102-induced oligomerization of CtBP1” value at CtBP1 [1] is reported as “inhibited”. Moreover, the “expression of Tuj1 in YJ102-treated ciNSC5” value with human UCB-MSCs (300 μM MTOB with 30 μM YJ102, 5 days) is recorded as “reduced”.

For the compound `O=C1C(SCCO)=C(SCCO)C(=O)c2ccccc21` [NSC95397], the “expression of Tuj1 in YJ102-treated ciNSC5” value with human UCB-MSCs (10 μM NSC95397 with 30 μM YJ102, 5 days) was “reduced”.

Regarding `CCc1ccc(N(C(=O)COC(C)=O)c2nc3cc(Cl)ccc3o2)cc1` [YJ101], the “cell proliferation (CellTiter-Glo)” value in the assay with UCB-MSCs [2] is “reduced cell proliferation in a concentration-dependent manner”. Moreover, the “direct conversion from UCB-MSCs to ciNSC5” value in the assay with UCB-MSCs [3] is on record as “induced direct conversion”. For the same compound, the “expression of Tuj1” value in the assay on UCB-MSCs [3], in the assay with AD-MSC, with BM-MSC and in the assay on UCB-MSC (Promo Cell) was “increased” each time. On CtBP1 [4], the “overexpressed CtBP1 (flag-CtBP1) protection from degradation by pronase (DARTS)” value is on record as “protected”. Further, the “binding to CtBP1” value on CtBP1 [4] is reported as “bound to CtBP1”.

`CCc1ccc(N(C(=O)CCC(=O)OC)c2nc3cc(Cl)ccc3o2)cc1` [YJ103]: the “cell proliferation (CellTiter-Glo)” value in the assay with UCB-MSCs [2] is listed as “reduced cell proliferation in a concentration-dependent manner”. In addition, the “direct conversion from UCB-MSCs to ciNSC5” value in the assay on UCB-MSCs [3] is listed as “induced direct conversion”. Besides, the “expression of Tuj1” value with UCB-MSCs [3], in the assay with AD-MSC, in the assay on BM-MSC and in the assay on UCB-MSC (Promo Cell) was “increased” each time. Also, at CtBP1 [4], the “overexpressed CtBP1 (flag-CtBP1) protection from degradation by pronase (DARTS)” value was “protected”. Moreover, the “binding to CtBP1” value at CtBP1 [4] is given as “bound to CtBP1”.
